Laboratory results from PMC10486429, “Investigations Using Albumin Binders to Modify the Tissue Distribution Profile of Radiopharmaceuticals Exemplified with Folate Radioconjugates” (Cancers, 2023).

Columns and labels:
[1] = biological target: human serum albumin (HSA) in human plasma (Homo sapiens, UniProt P02768); assay: Ultrafiltration albumin-binding assay of 177Lu-RedFols, human plasma; details: for Relative albumin-binding affinity: human blood plasma, inverse B50 ratio, normalized to the respective (6R or 6S) RedFol-1, set as 1.0; for Albumin-bound fraction: undiluted human blood plasma
Protocol: An ultrafiltration method was applied according to a previously published procedure (Supplementary Materials Section S11) that was different from the one reported for the ^177Lu-DOTA-ALBs to prevent non-specific binding to the filter units. Briefly, the albumin-bound fraction was determined at different molar concentration ratios of serum albumin relative to the ^177Lu-labeled RedFols using a blood plasma/PBS dilution series and constant amounts of the respective ^177Lu-labeled folate conjugate (0.3 MBq; 0.006 nmol). The albumin-bound fraction was separated from the free (albumin-unbound) fraction of each sample using Amicon centrifugal filters (cut-off of 10 kDa; Merck Millipore, Carrigtwohill, Ireland). The inserts of the filter devices were inverted and centrifuged to recover the albumin-bound fraction, whereas filter-bound activity was considered as free (albumin-unbound) folate radioconjugate. The activity of the different fractions was measured using a γ-counter (Perkin Elmer, Wallac Wizard 1480, Waltham, MA, USA), and the proportion of albumin-bound radioconjugate was set in relation to the total activity measured. The data were analyzed in analogy to those of ^177Lu-DOTA-ALBs (Section 2.1.3). The relative albumin-binding affinity was assessed by calculating the inverse ratio of the B50 value of each 6R-5-MTHF-based folate radioconjugate to the B50 value of [^177Lu]Lu-6R-RedFol-1 (set as 1.0) and of each 6S-5-MTHF-based folate radioconjugate to the B50 value of [^177Lu]Lu-6S-RedFol-1 (set as 1.0). The results were presented as average ± SD of n = 3 independent experiments. […]
S11. Relative Albumin-Binding Properties of 177Lu-RedFols
Purpose: The affinity of the folate radioconjugates to serum albumin in mouse and human blood plasma was determined and compared.
Methods: The albumin-binding affinity of the 177Lu-RedFols was assessed using mouse plasma (Rockland Immunochemicals, Inc., Pottstown, PA, USA, Lot N: 32321; MSA: ⁓550 µM) and human plasma (Stiftung Blutspende SRK Aargau-Solothurn, Aarau, Switzerland; HSA: ⁓800 µM), respectively. An ultrafiltration method was applied accord-ing to a previously published procedure that was different from the one reported for the 177Lu-DOTA-ALBs to avoid non-specific binding to the filter units.
The folate radioconjugates (50 MBq/nmol, ~300 kBq, 6 pmol in 15 µL) were added to samples of mouse and human blood plasma (150 µL), followed by incubation of the sam-ples at 37 °C for 30 min. The samples were loaded on Amicon centrifugal filters (cut-off of 10 kDa; Merck Millipore, Carrigtwohill, Ireland) followed by centrifugation (14000 rcf, 30 min, 4 °C) to allow the separation of the serum albumin-bound from the free (albumin-unbound) fractions of each sample. The inserts of the filter devices were inverted and centrifuged at 200 rcf for 3 min to recover the albumin-bound fraction. The activity of the albumin-bound fraction as well as the activity in the filtrate and in the filter unit were measured separately in a γ-counter (Perkin Elmer, Wallac Wizard 1480, Waltham, MA, USA). The percentage of radioconjugate bound to mouse and human albumin, respec-

[2] = test system: KB tumor-bearing athymic nude mice; assay: Biodistribution of 177Lu-RedFols in KB tumor-bearing mice; format: in vivo, mouse
Protocol: Athymic nude mice (Crl:CD1-Foxn^nu) were kept on a folate-deficient rodent diet (ssniff Spezialdiäten GmbH, Soest, Germany) for at least one week prior to inoculation with the tumor cells. Biodistribution studies were performed approx. two weeks after subcutaneous inoculation with KB tumor cells (5 × 10^6 in 100 μL PBS) (Supplementary Materials Section S12). […] Data were presented as the average ± SD of n = 3−4 mice.
Purpose: Biodistribution studies were performed in KB tumor-bearing athymic nude mice (Crl:CD1-Foxnnu) in order to investigate the tissue distribution profiles of the novel radioconjugates. The aim was to compare the impact of the two different albumin binders (4-(p-iodophenyl)butanoate unit vs. 5-(p-iodophenyl)pentanoate unit), and that of the in-corporation of an AMBA linker adjacent to the albumin binder on the distribution profile of the resulting folate radioconjugates.
Methods: The methods are described in the main article. The mice were sacrificed at […]

human serum albumin (HSA) in human plasma, sequence (P02768 25-609): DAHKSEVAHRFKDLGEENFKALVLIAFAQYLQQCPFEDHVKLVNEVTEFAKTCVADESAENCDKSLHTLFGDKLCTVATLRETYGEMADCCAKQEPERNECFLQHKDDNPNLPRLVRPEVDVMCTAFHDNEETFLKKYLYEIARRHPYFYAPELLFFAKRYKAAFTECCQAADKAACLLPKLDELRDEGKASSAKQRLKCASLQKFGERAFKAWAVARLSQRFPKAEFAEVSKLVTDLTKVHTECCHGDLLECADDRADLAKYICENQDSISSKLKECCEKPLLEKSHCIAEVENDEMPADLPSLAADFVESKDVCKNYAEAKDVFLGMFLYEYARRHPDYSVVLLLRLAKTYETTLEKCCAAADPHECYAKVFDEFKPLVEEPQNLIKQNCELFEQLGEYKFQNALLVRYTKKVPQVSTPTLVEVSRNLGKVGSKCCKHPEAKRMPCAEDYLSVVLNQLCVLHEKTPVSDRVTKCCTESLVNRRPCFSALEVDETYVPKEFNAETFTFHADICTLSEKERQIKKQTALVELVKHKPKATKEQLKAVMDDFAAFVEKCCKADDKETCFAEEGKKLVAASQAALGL

Structure (SMILES): CN1c2c(nc(N)[nH]c2=O)NCC1CNc1ccc(C(=O)NC(CCC(=O)NC(CCCCNC(=O)CN2CCN(CC(=O)[O-])CCN(CC(=O)[O-])CCN(CC(=O)[O-])CC2)C(=O)NC(CCCCNC(=O)c2ccc(CNC(=O)CCCc3ccc(I)cc3)cc2)C(=O)O)C(=O)O)cc1.[177Lu+3] (stereo not drawn) [[^177Lu]Lu-6S-RedFol-3]
- Relative albumin-binding affinity [1]: 1.1
- Albumin-bound fraction [1]: 97%
- Blood, accumulated activity ([2]; 1 h p.i.): 22 ± 1 % IA/g
- Bone, accumulated activity ([2]; 1 h p.i.): 1.9 ± 0.1 % IA/g
- Intestines, accumulated activity ([2]; 1 h p.i.): 2.3 ± 0.8 % IA/g
- KB tumor, accumulated activity ([2]; 1 h p.i.): 7.9 ± 1.2 % IA/g
- Kidneys, accumulated activity ([2]; 1 h p.i.): 12 ± 1 % IA/g
- Liver, accumulated activity ([2]; 1 h p.i.): 3.7 ± 0.2 % IA/g
- Lung, accumulated activity ([2]; 1 h p.i.): 9.3 ± 1.7 % IA/g
- Muscle, accumulated activity ([2]; 1 h p.i.): 1.4 ± 0.1 % IA/g
- Salivary glands, accumulated activity ([2]; 1 h p.i.): 4.1 ± 0.3 % IA/g
- Spleen, accumulated activity ([2]; 1 h p.i.): 2.4 ± 0.2 % IA/g
- Stomach, accumulated activity ([2]; 1 h p.i.): 1.8 ± 0.2 % IA/g
- Tumor-to-blood ratio ([2]; 1 h p.i.): 0.36 ± 0.06
- Tumor-to-kidney ratio ([2]; 1 h p.i.): 0.66 ± 0.09
- Tumor-to-liver ratio ([2]; 1 h p.i.): 2.1 ± 0.4
- Blood, accumulated activity ([2]; 4 h p.i.): 14 ± 1 % IA/g
- Bone, accumulated activity ([2]; 4 h p.i.): 1.8 ± 0.1 % IA/g
- Intestines, accumulated activity ([2]; 4 h p.i.): 1.7 ± 0.4 % IA/g
- KB tumor, accumulated activity ([2]; 4 h p.i.): 16 ± 1 % IA/g
- Kidneys, accumulated activity ([2]; 4 h p.i.): 11 ± 2 % IA/g
- Liver, accumulated activity ([2]; 4 h p.i.): 2.4 ± 0.2 % IA/g
- Lung, accumulated activity ([2]; 4 h p.i.): 7.7 ± 2.6 % IA/g
- Muscle, accumulated activity ([2]; 4 h p.i.): 1.2 ± 0.2 % IA/g
- Salivary glands, accumulated activity ([2]; 4 h p.i.): 2.8 ± 0.4 % IA/g
- Spleen, accumulated activity ([2]; 4 h p.i.): 1.7 ± 0.2 % IA/g
- Stomach, accumulated activity ([2]; 4 h p.i.): 1.3 ± 0.1 % IA/g
- Tumor-to-blood ratio ([2]; 4 h p.i.): 1.1 ± 0.1
- Tumor-to-kidney ratio ([2]; 4 h p.i.): 1.4 ± 0.2
- Tumor-to-liver ratio ([2]; 4 h p.i.): 6.5 ± 0.2
- Blood, accumulated activity ([2]; 24 h p.i.): 8.7 ± 1.1 % IA/g
- Bone, accumulated activity ([2]; 24 h p.i.): 1.2 ± 0.2 % IA/g
- Intestines, accumulated activity ([2]; 24 h p.i.): 1.0 ± 0.1 % IA/g
- KB tumor, accumulated activity ([2]; 24 h p.i.): 41 ± 2 % IA/g
- Kidneys, accumulated activity ([2]; 24 h p.i.): 30 ± 1 % IA/g
- Liver, accumulated activity ([2]; 24 h p.i.): 1.8 ± 0.4 % IA/g
- Lung, accumulated activity ([2]; 24 h p.i.): 4.8 ± 0.7 % IA/g
- Muscle, accumulated activity ([2]; 24 h p.i.): 1.0 ± 0.2 % IA/g
- Salivary glands, accumulated activity ([2]; 24 h p.i.): 2.3 ± 0.4 % IA/g
- Spleen, accumulated activity ([2]; 24 h p.i.): 2.3 ± 0.1 % IA/g
- Stomach, accumulated activity ([2]; 24 h p.i.): 1.1 ± 0.1 % IA/g
- Tumor-to-blood ratio ([2]; 24 h p.i.): 4.7 ± 0.3
- Tumor-to-kidney ratio ([2]; 24 h p.i.): 1.3 ± 0.1
- Tumor-to-liver ratio ([2]; 24 h p.i.): 24 ± 4

Structure (SMILES): CN1c2c(nc(N)[nH]c2=O)NC[C@H]1CNc1ccc(C(=O)N[C@@H](CCC(=O)N[C@@H](CCCCNC(=O)CN2CCN(CC(=O)O)CCN(CC(=O)O)CCN(CC(=O)O)CC2)C(=O)N[C@@H](CCCCNC(=O)CCCCc2ccc(I)cc2)C(=O)O)C(=O)O)cc1 [[^177Lu]Lu-6R-RedFol-24, metal not drawn]
- Relative albumin-binding affinity [1]: 0.5
- Albumin-bound fraction [1]: 94%
- Blood, accumulated activity ([2]; 1 h p.i.): 9.0 ± 1.2 % IA/g
- Bone, accumulated activity ([2]; 1 h p.i.): 1.2 ± 0.1 % IA/g
- Intestines, accumulated activity ([2]; 1 h p.i.): 1.2 ± 0.3 % IA/g
- KB tumor, accumulated activity ([2]; 1 h p.i.): 17 ± 2 % IA/g
- Kidneys, accumulated activity ([2]; 1 h p.i.): 36 ± 4 % IA/g
- Liver, accumulated activity ([2]; 1 h p.i.): 2.6 ± 0.7 % IA/g
- Lung, accumulated activity ([2]; 1 h p.i.): 4.6 ± 0.3 % IA/g
- Muscle, accumulated activity ([2]; 1 h p.i.): 1.4 ± 0.1 % IA/g
- Salivary glands, accumulated activity ([2]; 1 h p.i.): 6.4 ± 0.1 % IA/g
- Spleen, accumulated activity ([2]; 1 h p.i.): 1.3 ± 0.2 % IA/g
- Stomach, accumulated activity ([2]; 1 h p.i.): 1.5 ± 0.1 % IA/g
- Tumor-to-blood ratio ([2]; 1 h p.i.): 2.0 ± 0.4
- Tumor-to-kidney ratio ([2]; 1 h p.i.): 0.48 ± 0.02
- Tumor-to-liver ratio ([2]; 1 h p.i.): 6.9 ± 1.6
- Blood, accumulated activity ([2]; 4 h p.i.): 3.2 ± 1.8 % IA/g
- Bone, accumulated activity ([2]; 4 h p.i.): 0.87 ± 0.21 % IA/g
- Intestines, accumulated activity ([2]; 4 h p.i.): 0.83 ± 0.37 % IA/g
- KB tumor, accumulated activity ([2]; 4 h p.i.): 34 ± 6 % IA/g
- Kidneys, accumulated activity ([2]; 4 h p.i.): 57 ± 5 % IA/g
- Liver, accumulated activity ([2]; 4 h p.i.): 1.9 ± 0.4 % IA/g
- Lung, accumulated activity ([2]; 4 h p.i.): 2.4 ± 1.1 % IA/g
- Muscle, accumulated activity ([2]; 4 h p.i.): 1.3 ± 0.2 % IA/g
- Salivary glands, accumulated activity ([2]; 4 h p.i.): 8.7 ± 0.9 % IA/g
- Spleen, accumulated activity ([2]; 4 h p.i.): 0.83 ± 0.25 % IA/g
- Stomach, accumulated activity ([2]; 4 h p.i.): 1.4 ± 0.5 % IA/g
- Tumor-to-blood ratio ([2]; 4 h p.i.): 12 ± 5
- Tumor-to-kidney ratio ([2]; 4 h p.i.): 0.59 ± 0.04
- Tumor-to-liver ratio ([2]; 4 h p.i.): 18 ± 3
- Blood, accumulated activity ([2]; 24 h p.i.): 0.06 ± 0.01 % IA/g
- Bone, accumulated activity ([2]; 24 h p.i.): 0.49 ± 0.09 % IA/g
- Intestines, accumulated activity ([2]; 24 h p.i.): 0.28 ± 0.11 % IA/g
- KB tumor, accumulated activity ([2]; 24 h p.i.): 33 ± 2 % IA/g
- Kidneys, accumulated activity ([2]; 24 h p.i.): 62 ± 11 % IA/g
- Liver, accumulated activity ([2]; 24 h p.i.): 1.2 ± 0.2 % IA/g
- Lung, accumulated activity ([2]; 24 h p.i.): 0.60 ± 0.07 % IA/g
- Muscle, accumulated activity ([2]; 24 h p.i.): 0.75 ± 0.20 % IA/g
- Salivary glands, accumulated activity ([2]; 24 h p.i.): 4.5 ± 0.8 % IA/g
- Spleen, accumulated activity ([2]; 24 h p.i.): 0.51 ± 0.13 % IA/g
- Stomach, accumulated activity ([2]; 24 h p.i.): 0.54 ± 0.12 % IA/g
- Tumor-to-blood ratio ([2]; 24 h p.i.): 583 ± 105
- Tumor-to-kidney ratio ([2]; 24 h p.i.): 0.54 ± 0.07
- Tumor-to-liver ratio ([2]; 24 h p.i.): 28 ± 7
